The results in this text go back to article PMC5114273, “Activity of Scorpion Venom-Derived Antifungal Peptides against Planktonic Cells of Candida spp. and Cryptococcus neoformans and Candida albicans Biofilms” (Frontiers in Microbiology, 2016).

Data set [1] concerns C. albicans SC5314 biofilm. Kind of data set: Sessile MIC50 of C. albicans SC5314 biofilm (XTT reduction, supplement). The format is cell-based, Candida albicans. As for the experimental part:
Figure 2R. Difference between supernatant volume used for OD 490nm reading (50 and 80µL) using XTT
reduce assay. The experiments were performed four times independently. Statistical analyses: two-way
ANOVA test and Turkey pos-test (**** P ≤ 0,0001; *** P ≤ 0,001; ** P ≤ 0,01; * P ≤ 0,05).
Table 1R. Sessile Minimum Inhibitory Concentration 50% (SMIC50) of C. albicans SC5314
biofilm in response to Amphotericin B serially diluted from 0,01562 to 16 µg/mL.

The test system of the next data set is C. glabrata (ATCC 90030). Kind of data set: microbe, parasite or virus in culture. It is filed as cell-based, Candida glabrata. Conditions: Nakaseomyces glabratus, ATCC90030; RPMI-1640 pH 7.0, 2 × 10^3 cells/mL, 37°C, 24 h; peptides 400 to 0.78 μM; at least three experiments; read-out: Minimum inhibitory concentration, C. glabrata (ATCC 90030). From the text:
(§1) Candida albicans strain SC 5314 (ATCC MYA-2876) was provided by Dr. Joshua Nosanchuk (New York, NY, USA). C. glabrata ATCC 90030, C. parapsilosis ATCC 22019, and C. tropicalis ATCC 750 were provided by Dr. Érika Kioshima (Universidade Estadual de Maringá, Paraná, Brazil). C. neoformans var. grubii strain H99 (serotype A, ATCC 208821) was provided by Dr. John Perfect (Durham, NC, USA). C. neoformans var. neoformans B3501 (serotype D, ATCC 34873) was obtained from ATCC (Manassas, VA, USA). All strains were stored as frozen stocks in 35% glycerol at -80°C. Before each experiment, all Candida spp. strains were grown in Sabouraud’s dextrose broth overnight at 30°C with agitation. C. neoformans strains were grown in the same conditions for 24 h. Fungal cells were collected by centrifugation, washed three times in phosphate buffered saline (PBS) (137 mM NaCl, 2.7 mM KCl, 10 mM Na2HPO4, 2 mM KH2PO4) and inoculated in Roswell Park Memorial Institute (RPMI) 1640 medium supplemented with L-glutamine and buffered to pH 7.0 with 165 mM 3-(N-morpholino)propanesulfonic acid for experiments described below.
(§2) In vitro antifungal assays were performed according to broth microdilution susceptibility test from Clinical and Laboratory Standards Institute (CLSI) M27-A3 guidelines with some modifications. Briefly, twofold serial dilutions of each peptide were prepared in 96-well polystyrene microplates to a final volume of 50 μL. Amphotericin B (Amp B; A2942, Sigma-Aldrich), a known antifungal drug, was used as a positive control. Final concentrations of each peptide and Amp B ranged from 100 to 0.78 μM and 16 to 0.03 μg/mL, respectively, except in tests with C. glabrata and C. parapsilosis, where the final peptide concentration ranged from 400 to 0.78 μM. In each plate, wells were included without peptide as a growth control. Then, 50 μL of the adjusted inoculum in RPMI-1640 medium were added to each well to a final concentration of 2 × 10^3 cells/mL for Candida spp. and 10^4 cells/mL for C. neoformans strains. The plates were incubated at 37°C for 24 and 48 h, respectively. The strains of C. neoformans were also incubated with shaking (200 rpm). […] The experiments were performed at least three times on separate dates.

Data set [2] deals with C. albicans SC 5314 biofilm, initial cell adherence. Kind of data set: C. albicans biofilm, initial adherence (XTT reduction). It is filed as cell-based, Candida albicans. Conditions: at 0.25 μg/mL. As for the experimental part:
(§3) The effects of the peptides NDBP-4.23, ToAP1, ToAP2, and NDBP-5.7 on C. albicans biofilms were analyzed according to the protocol described by [Pierce et al. (2008)]. Briefly, C. albicans SC 5314 (10^6 cells/mL) was grown on 96-well polystyrene microplates and 4 h after seeding the peptides or Amp B were added to assess their effects on the first step of biofilm formation, the initial cell adherence. After 24 h of treatment, biofilm formation was measured by the metabolic assay based on the reduction of 2,3-bis-(2-methoxy-4-nitro-5-sulfophenyl)-2H-tetrazolium-5-carboxanilide (XTT). For the purpose of investigating effects of peptides on mature biofilms, the Candida cells were allowed to grow for 24 h prior to addition of the peptides or Amp B and the XTT assay was performed in the same way. All results were analyzed for statistical significance using analysis of variance (ANOVA) followed by Tukey post-test using GraphPad Prism 6 and expressed in terms of biofilm viability as XTT-readings percentage normalized by the control groups. Each compound was tested in triplicate and the experiments were performed at least twice on separate dates.

In data set [3] the test system is C. albicans SC 5314 mature biofilm. Kind of data set: C. albicans mature biofilm (XTT reduction). The format is cell-based, Candida albicans. As to conditions: at 2 μg/mL. As for the experimental part: as §3
In the next data set the test system is C. tropicalis (ATCC 750). Kind of data set: microbe, parasite or virus in culture. The format is cell-based, Candida tropicalis. As to conditions: Candida tropicalis, ATCC750; RPMI-1640 pH 7.0, 2 × 10^3 cells/mL, 37°C, 24 h; complete inhibition of visible growth; at least three experiments; read-out: Minimum inhibitory concentration, C. tropicalis (ATCC 750).
Description: as §1, §2

In data set [4] the test system is C. neoformans (B3501 serotype D). Kind of data set: microbe, parasite or virus in culture. It is filed as cell-based, Cryptococcus neoformans var. neoformans. Conditions: Cryptococcus neoformans; RPMI-1640 pH 7.0, 10^4 cells/mL, 37°C, 48 h, shaking 200 rpm; at least three experiments; read-out: Minimum inhibitory concentration, C. neoformans (B3501 serotype D).
Description: as §1, §2

Data set [5] has as its system C. neoformans (H99 serotype A). Kind of data set: microbe, parasite or virus in culture. It is filed as cell-based, Cryptococcus neoformans var. grubii. Conditions: Cryptococcus neoformans; RPMI-1640 pH 7.0, 10^4 cells/mL, 37°C, 48 h, shaking 200 rpm; at least three experiments; read-out: Minimum inhibitory concentration, C. neoformans (H99 serotype A).
Description: as §1, §2

For data set [6], the system named is C. parapsilosis (ATCC 22019). Kind of data set: microbe, parasite or virus in culture. It is filed as cell-based, Candida parapsilosis. Conditions: Lodderomyces parapsilosis, ATCC22019; RPMI-1640 pH 7.0, 2 × 10^3 cells/mL, 37°C, 24 h; peptides 400 to 0.78 μM; at least three experiments; read-out: Minimum inhibitory concentration, C. parapsilosis (ATCC 22019).
Description: as §1, §2

Another data set relates to C. albicans (SC5314). Kind of data set: microbe, parasite or virus in culture. The format is cell-based, Candida albicans. Conditions: Candida albicans, SC5314; RPMI-1640 pH 7.0, 2 × 10^3 cells/mL, 37°C, 24 h; complete inhibition of visible growth; at least three experiments; read-out: Minimum inhibitory concentration, C. albicans (SC5314).
Description: as §1, §2

Data set [7] relates to peritoneal macrophages of BALB/c mice. Kind of data set: Cytotoxic test using peritoneal macrophages (LDH release). It is filed as cell-based, mouse. Conditions: 24 h, threshold of acceptable cytotoxicity 50% viability, three independent experiments. The procedure:
BALB/c mice were injected with thioglycolate 72 h before peritoneal macrophages were harvested. They were diluted to a concentration of 10^6 cell/mL in RPMI-1640 supplemented with penicillin/streptomycin (100 U/mL, 100 µg/mL), 2 mM L-glutamine, 2 mM non-essential amino acids, 1 mM sodium pyruvate (all reagents from Sigma-Aldrich, St Louis, MO, USA) and 10% fetal bovine serum (FBS), and incubated in 96-well polystyrene microplates at 37°C, 5% CO2 for 24 h. The peptides were added then and cells were further incubated for 24 h as described previously ([Cruz et al., 2005]). Three independent experiments were performed. Cytotoxic activity was evaluated by the release of cytoplasmic enzyme lactate dehydrogenase due to cell lysis using the Cytotox kit (Promega). Briefly, at the end of the incubation period, supernatants were collected, the adhered cells were washed and the toxicity was determined according to the manufacturer’s protocol. The procedures were approved by the Ethics Committee on Animal Research of Institute of Biology (UnBDOC 52657/2011)/University of Brasília (UnB).

Data set [8] can be described thus: Stability assays of native and modified peptide. It is filed as physicochemical. Conditions: non-modified versus modified peptide.

Converted amounts (≈) assume the structure as drawn. Ends that are not written are not given here.

As for `C[C@@H]1[C@H](O)[C@@H](C)/C=C/C=C/C=C/C=C/C=C/C=C/C=C/[C@H](O[C@@H]2O[C@H](C)[C@@H](O)[C@H](N)[C@@H]2O)C[C@@H]2O[C@](O)(C[C@@H](O)C[C@@H](O)[C@H](O)CC[C@@H](O)C[C@@H](O)CC(=O)O[C@H]1C)C[C@H](O)[C@H]2C(=O)O` [Amp B, Amphotericin B], the SMIC50 was 0,08420 ug/mL in data set [1] (4h biofilm, 50 µl supernatant read at OD 490nm); 0,06812 ug/mL in [1] (4h biofilm, 80 µl supernatant read at OD 490nm); 0,1919 ug/mL in [1] (24h biofilm, 50 µl supernatant read at OD 490nm); 0,1732 ug/mL in data set [1] (24h biofilm, 80 µl supernatant read at OD 490nm); 0,2857 ug/mL in data set [1] (48h biofilm, 50 µl supernatant read at OD 490nm); 0,2424 ug/mL in data set [1] (48h biofilm, 80 µl supernatant read at OD 490nm). For the same compound, the MIC in the data set with C. glabrata (ATCC 90030) is 1.08 µM (≈ 0.998 µg/mL); in the data set with C. tropicalis (ATCC 750), 2.16 µM (≈ 2 µg/mL); in data set [4], 0.135 µM (≈ 0.125 µg/mL); in data set [5], 0.27 µM (≈ 0.25 µg/mL); in data set [6] it was 2.16 µM (≈ 2 µg/mL); with C. albicans (SC5314), 1.08 µM (≈ 0.998 µg/mL). Moreover, in data set [2], the “Reduction in biofilm viability, initial adherence” value is listed as “at least 80%”. For the same compound, the “Reduction in biofilm viability, three-dimensional architecture” value in data set [3] is recorded as “at least 80%”.
Turning to FFGTLFKLGSKLIPGVMKLFSKKKER [ToAP2], in [7], the “Concentrations showing low cytotoxicity” value was “below 6.25 μM”. In addition, the “Stability compared with the modified peptide” value in data set [8] is “lower stability”.
